What was measured:
[1] = test system: Hela cells; assay: Cytotoxicity assay (MTS reduction); type: cell-based; conditions: concentrations up to 100 μM, 18 h, MTS reagent; data not shown
Protocol: Selected compounds were also tested for their ability to inhibit growth of mammalian cells so as to ascertain levels of cytotoxicity to the mammalian host, via an assay measuring the biological reduction of the inner salt of (3-(4,5-dimethylthiazol-2-yl)-5-(3-carboxymethoxyphenyl)-2-(4-sulfophenyl)-2H-tetrazolium (MTS reagent). Assays were performed in 96-well microtiter plates. Briefly, compounds at 100, 50, 25, and 12.5 μM concentrations were incubated with 2×10^4 Hela cells per well in Dulbecco's Modified Eagle Medium (Invitrogen Corporation) containing 1% Bovine Growth Serum (HyClone) for 18 h at 37° C. under 5% CO2.

[2] = Bone powder binding, fluorometric detection; conditions: 1 mg/ml compound, bone meal powder 10 mg/ml in PBS, 37° C., 1 h
Protocol: The ability of the example molecules to bind to bone powder was established in two parallel fashions, using either LC/MS or fluorometric detection. For LC/MS detection, a stock solution (5 mM) of the compound to be tested was added to 0.1M Tris-HCl buffer pH 7, 0.15M NaCl to reach a final concentration of 100 μM. Triplicate samples (1 mL) of the compound solutions were intensively shaken for 10 min with or without 25 mg of fresh or 20 mg of vacuum dried ground rat tibia bone. The samples were then centrifuged for 15 min at 10 000 g. The presence of unbound compound was measured by injection of 30 μL of each of the supernatants into an Agilent 1100™ LC/UV system. For fluorometric detection, an individual compound was dissolved in PBS or water (compound 52) and resuspended at a concentration of 1 mg/ml in a slurry of bone meal powder (Now Foods, Bloomingdale, Ill., USA) in PBS at 10 mg/ml. The suspension of drug/prodrug in bone meal powder was incubated at 37° C. for 1 h to allow for binding, and centrifuged at 13 000 rpm for 2 min, before recovering the supernatant. The bone meal powder pellet was then washed three times with 1 ml of PBS. All supernatants were saved and assessed for fluoroquinolone content by fluorescence measurements at excitation/emission wavelengths of 280/465 nm. The amount of fluoroquinolone was determined from standard curves generated for each experiment. Amount of drug/prodrug bound to bone powder was deduced from the difference between the input amount (typically 1 mg) and the amount recovered in the supernatants after binding. In all binding experiments, >99% of input drug was recovered in the supernatant for the parent drugs.

[3] = Regeneration of drug from bone powder-bound prodrug; type: in vitro ADME; conditions: for effect of the medium (presence or absence of serum) on regeneration rate: PBS vs serum; for drug released from the bone matter after 7 days of incubation, in words / drug released from the bone matter after 24 h, in words: medium not stated
Protocol: Amounts of drug “regenerated” from the phosphonated parent prodrug were measured as follows. Washed bone powder-bound prodrugs from the above section were resuspended in 400 μL PBS or in 400 μL 50% (v/v in PBS) human or rat serum. […] Methanol (5× volume relative to supernatant) was added to each supernatant and the mixture was vortexed on a floor model vortex for 15 min to extract freed fluoroquinolone. The mixture was then centrifuged at 10 000 rpm for 15 min to pellet the insoluble material. The supernatant containing the extracted fluoroquinolone was recovered and evaporated to dryness in a speed vac. The dried pellets were resuspended in PBS and the amount of fluoroquinolone was determined by fluorescence measurements as described above. The percentage of drug regenerated was deduced from the difference between amount of bound prodrug and the amount of regenerated drug. The identity of regenerated drug was deduced by MIC determination; MICs of regenerated material matched those of parent drugs but not those of prodrugs.

[4] = test system: S. aureus ATCC 13709; assay: Prophylactic model of bone infection in rats; type: in vivo, rat
Protocol: To determine the activity in vivo of bisphosphonated prodrugs of fluoroquinolones, compounds 52 and 107, derivatives of parent compounds moxifloxacin 3 (for 52), and compounds 39, 44, 49, 54, 121, 129, 141, 145, 149, derivatives of parent compound gatifloxacin 15, were used in a prophylactic model for infection. Specifically, S. aureus ATCC 13709 cells were grown overnight at 37° C. in brain heart infusion broth (BHIB). Cells were subcultured into fresh BHIB and incubated for 4 to 5 h at 37° C. The cells were washed twice with phosphate-buffered saline (PBS) and resuspended in BHIB supplemented with 10% (vol./vol.) fetal bovine serum at a density of approximately 10^10 colony forming units (CFU)/ml (based upon turbidimetry). The suspension was aliquoted and a portion was used to check the CFU count. The culture was stored frozen (−80° C.) and was used without subculture. For use as an inoculum the culture was thawed, diluted in PBS and kept in an ice bath until it was used.
Animals were infected as described by O'Reilly et al. (Antimicrobial Agents and Chemotherapy (1992), 36(12): 2693-97) to generate the bone infection. Female CD rats (age, 57 to 70 days; n=5/group; Charles River, St-Constant, Canada) were anaesthetized by isofluorane before and during the surgery. Following complete induction of anesthesia, the rat was placed ventral side up and hair was shaved from the surgical site. The skin over the leg was cleaned and disinfected (proviodine-ethanol 70%). A longitudinal incision below the knee joint was made in the sagital plane. The incision was made over the bone below the “knee joint” (tibia head or condyle) but not completely extending to the ankle. A high speed drill fitted with a 2 mm bulb bit was used to drill a hole into the medullar cavity of the tibia. Rats were injected intra-tibially with 0.05 ml 5% sodium morrhuate (sclerosing agent) and then with 0.05 ml of S. aureus suspension (ca. 5×10^5 CFU/rat). The hole was sealed by applying a small amount of dry dental cement which immediately absorbs fluids and adheres to the site. The wound was closed using 3 metal skin clips. Moxifloxacin 3 (as a positive control) was injected once at 10 mg/kg intravenously 1 h postinfection in saline, while the fluoroquinolone prodrugs (prepared in 0.9% saline) were injected as a single intravenous bolus dose at different time points prior to the infection. For comparison, the parent drug (moxifloxacin 3 or gatifloxacin 15) was also injected intravenously once at a molar equivalent dose at the same time point prior the infection.
Infected rats were sacrificed by CO2 asphyxiation 24 h postinfection to monitor the bacterial CFU count. Infected tibiae were removed, dissected free of soft tissue, and weighed. The bones were ground using a metal ball mill, resuspended in 5 ml 0.9% NaCl, serially diluted and processed for quantitative cultures. For compounds 39, 44, 49, 54, 141, 145, 149, 1 ml of the 0.9% NaCl solution was added to 50 mg of charcoal before serial dilutions. Treatment efficacies were measured in terms of Log viable bacteria (Log CFU per gram of bone). The results obtained for each group of rats were evaluated by calculating the mean Log CFU and standard deviation. The limit of detection is 2 Log CFU/g of bone. Statistical comparisons of viable bacterial counts for the different treated and untreated groups were performed with Dunnett's multiple-comparison test. Differences were considered significant when the P value was <0.05 when comparing treated infected animals to the untreated infected ones.

SMILES	cytotoxicity [1]	Binding to bone (%) Fluorescence [2] [%]	other results
COc1c(N2CCN(C(=O)OC(C)OC(=O)CCCC(=O)NC(P(=O)(O)O)P(=O)(O)O)C(C)C2)c(F)cc2c(=O)c(C(=O)O)cn(C3CC3)c12 (stereo not shown) [Compound 39]	no signs of any cytotoxicity	94.3	effect of the medium (presence or absence of serum) on regeneration rate [3]: fairly similar rates; Measured bacterial titer (Log CFU/g of bone) Test compound ([4]; 20 mg/kg IV, 3 days prior to infection): 4.63 ± 0.39 Log CFU/g of bone; prophylactic effect in rat model of bone infection, in words ([4]; Table 4 and FIGS. 6-8, doses as in Table 4): unable to produce a positive result in vivo
COP(=O)(OC)C(CN1CCN(c2cc3c(cc2F)c(=O)c(C(=O)O)cn3C2CC2)CC1)P(=O)(OC)OC [Compound 7, 7-(4-(2,2-bis(dimethylphosphono)ethyl)piperazin-1-yl)-1-cyclopropyl-6-fluoro-1,4-dihydro-4-oxoquinoline-3-carboxylic acid]	no signs of any cytotoxicity		
COc1c(N2C[C@@H]3CCCN[C@@H]3C2)c(F)cc2c(=O)c(C(=O)OCCCC(P(=O)(O)O)P(=O)(O)O)cn(C3CC3)c12 [Compound 14, 4,4-bisphosphonobutyl 7-((4aS,7aS)-octahydropyrrolo[3,4-b]pyridin-6-yl)-1-cyclopropyl-6-fluoro-1,4-dihydro-8-methoxy-4-oxoquinoline-3-carboxylate]	no signs of any cytotoxicity	93.8	drug released from the bone matter after 7 days of incubation, in words [3]: signs of drug release
COc1c(N2C[C@@H]3CCCN(CC(P(=O)(O)O)P(=O)(O)O)[C@@H]3C2)c(F)cc2c(=O)c(C(=O)O)cn(C3CC3)c12 [Compound 5, 7-((4aS,7aS)-1-(2,2-bisphosphonoethyl)-octahydropyrrolo[3,4-b]pyridin-6-yl)-1-cyclopropyl-6-fluoro-1,4-dihydro-8-methoxy-4-oxoquinoline-3-carboxylic acid]	no signs of any cytotoxicity	92.2	drug released from the bone matter after 24 h, in words [3]: not measurable amount of drug released; drug released from the bone matter after 7 days of incubation, in words [3]: only trace amounts
COc1c(N2C[C@@H]3CCCN(CC(P(=O)(OC)OC)P(=O)(OC)OC)[C@@H]3C2)c(F)cc2c(=O)c(C(=O)O)cn(C3CC3)c12 [Compound 4, 7-((4aS,7aS)-1-(2,2-bis(dimethylphosphono)ethyl)-octahydropyrrolo[3,4-b]pyridin-6-yl)-1-cyclopropyl-6-fluoro-1,4-dihydro-8-methoxy-4-oxoquinoline-3-carboxylic acid]	no signs of any cytotoxicity		
CCOP(=O)(OCC)C(NC(=O)COC(=O)c1cn(C2CC2)c2c(OC)c(N3CCN(C(=O)OC(C)(C)C)C(C)C3)c(F)cc2c1=O)P(=O)(OCC)OCC (stereo not shown) [Compound 53, (1,1-Bis(diethylphosphono)methylcarbamoyl)methyl 7-(4-(tert-butoxycarbonyl)-3-methylpiperazin-1-yl)-1-cyclopropyl-6-fluoro-1,4-dihydro-8-methoxy-4-oxoquinoline-3-carboxylate]	no signs of any cytotoxicity		
COC(=O)c1cn(C2CC2)c2c(OC)c(N3C[C@@H]4CCCN[C@@H]4C3)c(F)cc2c1=O [Compound 154, Methyl 1-cyclopropyl-6-fluoro-1,4-dihydro-7-((4aS,7aS)-octahydropyrrolo[3,4-b]pyridin-6-yl)-8-methoxy-4-oxoquinoline-3-carboxylate]	no signs of any cytotoxicity		
COc1c(N2CCNC(C)C2)c(F)cc2c(=O)c(C(=O)OCC(=O)Nc3ccc(CC(P(=O)(O)O)P(=O)(O)O)cc3)cn(C3CC3)c12 (stereo not shown) [Compound 64, (4-(2,2-Bisphosphonoethyl)phenylcarbamoyl)methyl 7-(3-methylpiperazin-1-yl)-1-cyclopropyl-6-fluoro-1,4-dihydro-8-methoxy-4-oxoquinoline-3-carboxylate]	no signs of any cytotoxicity	88.9	effect of the medium (presence or absence of serum) on regeneration rate [3]: fairly similar rates
O=C(O)c1cn(C2CC2)c2cc(N3CCN(CC(P(=O)(O)O)P(=O)(O)O)CC3)c(F)cc2c1=O [Compound 8, 7-(4-(2,2-bisphosphonoethyl)piperazin-1-yl)-1-cyclopropyl-6-fluoro-1,4-dihydro-4-oxoquinoline-3-carboxylic acid]	no signs of any cytotoxicity	99.6	drug released from the bone matter after 24 h, in words [3]: not measurable amount of drug released

Reference: patent publication US20080287396A1, “Phosphonated Fluoroquinolones, Antibacterial Analogs Thereof, and Methods for the Prevention and Treatment of Bone and Joint Infections” (TARGANTA THERAPEUTICA INC., priority 2005, published 2008)
